Data reported in patent publication US12398154B2, “Azaquinazoline pan-KRas inhibitors” (Mirati Therapeutics, Inc., priority 2020, dated 2025).

Tests used:
pERK in H358 cells = test: Inhibition of KRas phosphorylation of ERK (Cisbio HTRF pERK assay); conditions: Homo sapiens, NCI-H358, read-out: Inhibition (HTRF IC50) of KRas-mediated Phosphorylation of ERK, H358
Procedure: (§2) To harvest cells from flask using 0.05% Trypsin/EDTA solution. Add 10 mL of media to stop trypsinizing. Pipette the cells into a conical bottom 50 mL centrifuge tube and centrifuge 5 min×1000 rpm. • 2. Re-suspend the cell pellet in media, take a cell count, and then adjust the cell density using fresh media. • 3. Seed 6,000 cells into cell culture plate with 50 μL media. […] Incubate cell plate overnight in a 37° C., 5% CO2 incubator. • Compound titrations • 1. Use Tecan to complete the compound addition. Compounds start from 10 uM top, 3-fold dilution, and 10 doses. The final DMSO concentration is 0.8%. Dispensed 0.2 uM Trametinib as Min control. • 2. Incubate cell plate for 3 hrs in the incubator. • Detection with cisbio pERK HTRF kit • 1. […] At the end of the compound treatment, flick-off the media. • 3. Add 35 μL of lysis buffer per well using a Multidrop Combi. Then place on a plate agitator shaking at 300 rpm at 4° C. for 40 mins. • 4. Make up the HTRF antibody buffer. For each assay plate, mix 50 μL of d2-conjugate antibody with 950 μL of detection buffer. Similarly, mix 50 μL of Cryptate antibody with 950 μL of detection buffer. Then mix the two diluted antibodies together. • 5. Dispense 3.4 μL the antibody buffer to wells of an empty assay plate. Seal the plate and centrifuge plate 30 sec×1000 rpm. • 6. At the end of the 4° C. lysis, centrifuge the lysate plates 3 mins×1500 rpm. • 7. Use the Bravo to transfer 13.6 μL of lysate from cell culture plate to assay plate.
(§3) Then incubate assay plate for 2 hrs at room temperature. […] At the end of incubation, read plate on the Envision after centrifuging plate 30 sec× • 1000 rpm.

pERK in PSN1 cells = test: as above; conditions: Homo sapiens, PSN1, 3 h, read-out: Inhibition (HTRF IC50) of KRas-mediated Phosphorylation of ERK, PSN1
pERK in H460 cells = test: as above; conditions: Homo sapiens, NCI-H460, read-out: Inhibition (HTRF IC50) of KRas-mediated Phosphorylation of ERK, H460
pERK in ASPC1 cells = test: as above; conditions: Homo sapiens, ASPC1, read-out: Inhibition (HTRF IC50) of KRas-mediated Phosphorylation of ERK, AsPC-1
pERK in H727 cells = test: as above; conditions: Homo sapiens, NCI-H727, read-out: Inhibition (HTRF IC50) of KRas-mediated Phosphorylation of ERK, H727
Procedure: as §2, §3

pERK in HCT116 cells = test: as above; conditions: Homo sapiens, HCT-116, read-out: Inhibition (HTRF IC50) of KRas-mediated Phosphorylation of ERK, HCT116
pERK in MKN1 cells = test: as above; conditions: Homo sapiens, MKN-1, 3 h, read-out: Inhibition (HTRF IC50) of KRas-mediated Phosphorylation of ERK, MKN1
Procedure: as §2, §3

[1] = test system: phospho-ERK in NCI-H727 (G12V) cells; test: Inhibition of KRas-mediated phosphorylation of ERK (in-cell western); type: cell-based; conditions: Homo sapiens, NCI-H727, 3 h, 3 hours compound, phospho-ERK normalized to GAPDH
Method in brief: (§1)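 Following fixation in formaldehyde and permeabilization in cold methanol, ERK phosphorylated at Thr202/Tyr204 was quantified against GAPDH.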

[2] = test system: phospho-ERK in NCI-H460 (Q61H) cells; test: as above; type: cell-based; conditions: Homo sapiens, NCI-H460, 3 h, 3 hours compound, phospho-ERK normalized to GAPDH
Method in brief: as §1

[3] = test system: phospho-ERK in AsPC-1 (G12D) cells; test: as above; type: cell-based; conditions: Homo sapiens, ASPC1, 3 h, 3 hours compound, phospho-ERK normalized to GAPDH
Method in brief: as §1

pERK in A549 cells = test: Inhibition of KRas phosphorylation of ERK (Cisbio HTRF pERK assay); conditions: Homo sapiens, A549, read-out: Inhibition (HTRF IC50) of KRas-mediated Phosphorylation of ERK, A549
KRas G12R = KRas G12R (Homo sapiens, UniProt P01116, G12R); test: biochemical;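 also: TR-FRET displacement assay of compound binding to KRas, read after one hour at room temperature, potency from a four-parameter fit of percent-of-control values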
Sequence of KRas G12R (P01116 1-169 isoform P01116-2 G12R): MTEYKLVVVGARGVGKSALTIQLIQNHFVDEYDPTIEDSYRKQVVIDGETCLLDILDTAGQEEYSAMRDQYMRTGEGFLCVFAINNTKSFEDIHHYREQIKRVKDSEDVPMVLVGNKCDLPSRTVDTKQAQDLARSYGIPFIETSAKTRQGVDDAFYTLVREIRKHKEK
Procedure: (§4) The ability of a compound to bind to KRas was measured using a TR-FRET displacement assay. […] After a 60-minute incubation at room temperature, the reaction was measured using a BMG LABTECH CLARIO star Plus via TR-FRET. […] The POC values were fit to a 4-parameter IC50 equation and the IC50 value reported.

KRas G12V = KRas G12V (Homo sapiens, UniProt P01116, G12V); test: biochemical;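 also: KRas binding measured by TR-FRET displacement at room temperature, IC50 fitted from percent of control values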
Sequence of KRas G12V (P01116 1-169 isoform P01116-2 G12V): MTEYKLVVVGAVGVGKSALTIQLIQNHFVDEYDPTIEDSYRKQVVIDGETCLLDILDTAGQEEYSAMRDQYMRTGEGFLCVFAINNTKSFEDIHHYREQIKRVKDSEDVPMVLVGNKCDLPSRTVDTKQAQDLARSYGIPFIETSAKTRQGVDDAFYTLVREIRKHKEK
Procedure: as §4

KRas G12D = KRas G12D (Homo sapiens, UniProt P01116, G12D); test: biochemical;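 also: TR-FRET displacement binding assay on KRas, read after a one-hour incubation at room temperature, IC50 fitted from percent-of-control values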
Sequence of KRas G12D (P01116 1-169 isoform P01116-2 G12D): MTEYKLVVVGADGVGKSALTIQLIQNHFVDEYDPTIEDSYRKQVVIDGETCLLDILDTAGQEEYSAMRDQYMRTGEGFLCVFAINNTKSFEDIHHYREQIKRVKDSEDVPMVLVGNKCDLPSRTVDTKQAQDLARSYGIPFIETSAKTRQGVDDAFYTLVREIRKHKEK
Procedure: as §4

IC50 (pERK in H358 cells) [nM]	IC50 (pERK in PSN1 cells) [nM]	IC50 (pERK in H460 cells) [nM]	IC50 (pERK in ASPC1 cells) [nM]	IC50 (pERK in H727 cells) [nM]	IC50 (pERK in HCT116 cells) [nM]	IC50 (pERK in MKN1 cells) [nM]	IC50 (pERK in A549 cells) [nM]	IC50 (KRas G12R) [nM]	IC50 (KRas G12V) [nM]	IC50 (KRas G12D) [nM]	Compound	IC50 [1] [nM]	IC50 [2] [nM]	IC50 [3] [nM]
20	8780	82	83	138	296	13	–	–	–	–	CCc1c(F)ccc2cc(O)cc(-c3ncc4c(N5CCOCC(O)C5)nc(OC[C@@]56CCCN5C[C@H](F)C6)nc4c3F)c12 (stereo partly drawn) [Example 345, 4-(7-(8-ethyl-7-fluoro-3-hydroxynaphthalen-1-yl)-8-fluoro-2-(((2R,7aS)-2-fluorotetrahydro-1H-pyrrolizin-7a(5H)-yl)methoxy)pyrido[4,3-d]pyrimidin-4-yl)-1,4-oxazepan-6-ol]	–	–	–
–	≥ 10000	1560	1690	1160	1760	37	734	≤ 2	≤ 2	5	O=C1NC(=O)C2(CCCN(c3nc(OC[C@@]45CCCN4C[C@H](F)C5)nc4c(F)c(-c5cc(O)cc6ccc(F)c(F)c56)ncc34)C2)N1 (stereo partly drawn) [Example 444, 7-(7-(7,8-difluoro-3-hydroxynaphthalen-1-yl)-8-fluoro-2-(((2R,7aS)-2-fluorohexahydro-1H-pyrrolizin-7a-yl)methoxy)pyrido[4,3-d]pyrimidin-4-yl)-1,3,7-triazaspiro[4.5]decane-2,4-dione]	1740	656	2440
–	4080	639	204	165	1510	41	224	≤ 2	≤ 2	4	O=C1CC2(CCCN(c3nc(OC[C@@]45CCCN4C[C@H](F)C5)nc4c(F)c(-c5cc(O)cc6ccc(F)c(F)c56)ncc34)C2)N1 (stereo partly drawn) [Example 452, 6-(7-(7,8-difluoro-3-hydroxynaphthalen-1-yl)-8-fluoro-2-(((2R,7aS)-2-fluorohexahydro-1H-pyrrolizin-7a-yl)methoxy)pyrido[4,3-d]pyrimidin-4-yl)-1,6-diazaspiro[3.5]nonan-2-one]	793	154	182
–	≥ 10000	713	192	871	5430	80	1250	5	≤ 2	≤ 2	CCc1c(F)ccc2cc(O)cc(-c3ncc4c(N5CCCC6(COC(=O)N6)C5)nc(OC[C@@]56CCCN5C[C@H](F)C6)nc4c3F)c12 (stereo partly drawn) [Example 478, 7-(7-(8-ethyl-7-fluoro-3-hydroxynaphthalen-1-yl)-8-fluoro-2-(((2R,7aS)-2-fluorohexahydro-1H-pyrrolizin-7a-yl)methoxy)pyrido[4,3-d]pyrimidin-4-yl)-3-oxa-1,7-diazaspiro[4.5]decan-2-one]	–	–	–
–	≥ 10000	47	240	100	111	6	215	6	7	38	CCc1c(F)ccc2cc(O)cc(-c3ncc4c(N5CCOCC6(COC6)C5)nc(OC[C@@]56CCCN5C[C@H](F)C6)nc4c3F)c12 [Example 480, 5-ethyl-6-fluoro-4-(8-fluoro-2-(((2R,7aS)-2-fluorohexahydro-1H-pyrrolizin-7a-yl)methoxy)-4-(2,6-dioxa-9-azaspiro[3.6]decan-9-yl)pyrido[4,3-d]pyrimidin-7-yl)naphthalen-2-ol]	–	–	–
–	≥ 10000	305	395	205	368	41	298	3	≤ 2	≤ 2	CCc1c(F)ccc2cc(O)cc(-c3ncc4c(N5C[C@H](O)CC[C@@H](O)C5)nc(OC[C@@]56CCCN5C[C@H](F)C6)nc4c3F)c12 [Example 490, (3R,6R)-1-(7-(8-ethyl-7-fluoro-3-hydroxynaphthalen-1-yl)-8-fluoro-2-(((2R,7aS)-2-fluorohexahydro-1H-pyrrolizin-7a-yl)methoxy)pyrido[4,3-d]pyrimidin-4-yl)azepane-3,6-diol]	–	–	–
–	≥ 10000	162	109	100	474	13	145	6	8	27	CCc1c(F)ccc2cc(O)cc(-c3ncc4c(N5CCOCC(OC)C5)nc(OC[C@@]56CCCN5C[C@H](F)C6)nc4c3F)c12 (stereo partly drawn) [Example 499, 5-ethyl-6-fluoro-4-(8-fluoro-2-(((2R,7aS)-2-fluorotetrahydro-1H-pyrrolizin-7a(5H)-yl)methoxy)-4-(6-methoxy-1,4-oxazepan-4-yl)pyrido[4,3-d]pyrimidin-7-yl)naphthalen-2-ol]	–	–	–
16	≥ 10000	327	14	50	–	31	–	≤ 2	≤ 2	≤ 2	CCc1c(F)ccc2cc(O)cc(-c3ncc4c(N5CCCn6nc(C(=O)N(C)C)c(F)c6C5)nc(OC[C@@]56CCCN5C[C@H](F)C6)nc4c3F)c12 [Example 505, 5-(7-(8-ethyl-7-fluoro-3-hydroxynaphthalen-1-yl)-8-fluoro-2-(((2R,7aS)-2-fluorohexahydro-1H-pyrrolizin-7a-yl)methoxy)pyrido[4,3-d]pyrimidin-4-yl)-3-fluoro-N,N-dimethyl-5,6,7,8-tetrahydro-4H-pyrazolo[1,5-a][1,4]diazepine-2-carboxamide]	–	–	–
–	6140	206	144	338	314	89	211	12	6	6	CCc1c(F)ccc2cc(O)cc(-c3ncc4c(N5CCCC6(CCC(F)(F)C6)C5)nc(OC[C@@]56CCCN5C[C@H](F)C6)nc4c3F)c12 (stereo partly drawn) [Example 509, 4-(4-(2,2-difluoro-7-azaspiro[4.5]decan-7-yl)-8-fluoro-2-(((2R,7aS)-2-fluorohexahydro-1H-pyrrolizin-7a-yl)methoxy)pyrido[4,3-d]pyrimidin-7-yl)-5-ethyl-6-fluoronaphthalen-2-ol]	–	–	–
–	5100	397	186	388	954	73	515	9	8	10	CCc1c(F)ccc2cc(O)cc(-c3ncc4c(N5CCCC6(CCC(O)C6)C5)nc(OC[C@@]56CCCN5C[C@H](F)C6)nc4c3F)c12 (stereo partly drawn) [Example 510, 7-(7-(8-ethyl-7-fluoro-3-hydroxynaphthalen-1-yl)-8-fluoro-2-(((2R,7aS)-2-fluorotetrahydro-1H-pyrrolizin-7a(5H)-yl)methoxy)pyrido[4,3-d]pyrimidin-4-yl)-7-azaspiro[4.5]decan-2-ol]	–	–	–
